Results published in ChEMBL document CHEMBL4177619, “Novel potentially antifungal hybrids of 5-flucytosine and fluconazole: Design, synthesis and bioactive evaluation” (2017).
≈ marks a conversion by molar mass, not a printed value. Calls of active or inactive are those of the source. The rule behind the calls is not given here.

How the values were obtained:
[1] = system: Candida albicans; experiment: Fungicidal activity against Candida albicans assessed as log reduction in fungal load at 4 time MIC up to 1 hr by time kill assay; format: functional
[2] = system: Candida tropicalis; experiment: Antifungal activity against Candida tropicalis after 24 hrs by micro broth dilution method; format: functional
[3] = system: Candida albicans; experiment: Induction of inner membrane permeabilization in Candida albicans assessed as propidium iodide uptake at 12 times MIC up to 105 mins by fluorescence assay; format: functional, organism-based
[4] = system: Aspergillus fumigatus; experiment: Antifungal activity against Aspergillus fumigatus after 24 hrs by micro broth dilution method; format: functional
[5] = system: Candida albicans; experiment: Potency index, ratio of 5-fluorocytosine MIC80 to compound MIC80 for Candida albicans; format: functional
[6] = system: Calf thymus DNA; experiment: Binding affinity to calf thymus DNA assessed as hyperchromic effect up to 2 x 10^-5mol/L by UV-Visible spectrometric analysis; format: nucleic-acid assay; conditions: Bos taurus
[7] = system: Candida parapsilosis; experiment: Antifungal activity against Candida parapsilosis ATCC 22019 after 24 hrs by micro broth dilution method; format: functional; conditions: Lodderomyces parapsilosis, ATCC 22019, 24 h
[8] = system: Calf thymus DNA; experiment: Inhibition of neutral red binding to calf thymus DNA by UV-Visible spectrometric analysis; format: nucleic-acid assay; conditions: Bos taurus
[9] = system: Candida albicans; experiment: Antifungal activity against Candida albicans after 24 hrs by micro broth dilution method; format: functional
[10] = system: Candida albicans; experiment: Antifungal activity against Candida albicans ATCC 90023 after 24 hrs by micro broth dilution method; format: functional; conditions: ATCC 90023, 24 h
[11] = system: Calf thymus DNA; experiment: Binding affinity to calf thymus DNA assessed as increase in maximum absorption of DNA by UV-Visible spectrometric analysis; format: nucleic-acid assay; conditions: Bos taurus
[12] = system: Candida albicans; experiment: Potency index, ratio of fluconazole MIC80 to compound MIC80 for Candida albicans; format: functional

Structure (SMILES)	Activity [1] [log10CFU/ml]	MIC80 [2] [µM]	Activity [3]	MIC80 [4] [µM]	Ratio [5]	Activity [6]	MIC80 [7] [µM]	inhibition [8]	MIC80 [9] [µM]	MIC80 [10] [µM]	Activity [11]	K [11] [×10³ L/mol]	Ratio [12]
O=c1nc(N(Cc2ccc(Cl)c(Cl)c2)CC(O)(Cn2cncn2)c2ccc(F)cc2F)c(F)c[nH]1 (stereo not drawn)	>3	30 (≈ 15.8 µg/mL)	Active	30 (≈ 15.8 µg/mL)	8	Active	30 (≈ 15.8 µg/mL)	Dose-dependent effect	20 (≈ 10.5 µg/mL)	8 (≈ 4.2 µg/mL)	Dose-dependent effect	4.88	8
CCCCCCCCCCN(CC(O)(Cn1cncn1)c1ccc(F)cc1F)c1nc(=O)[nH]cc1F (stereo not drawn)	–	1010 (≈ 512 µg/mL)	–	2020 (≈ 1020 µg/mL)	–	–	1010 (≈ 512 µg/mL)	–	1010 (≈ 512 µg/mL)	2020 (≈ 1020 µg/mL)	–	–	–
CCCN(CC(O)(Cn1cncn1)c1ccc(F)cc1F)c1nc(=O)[nH]cc1F (stereo not drawn)	–	620 (≈ 253 µg/mL)	–	620 (≈ 253 µg/mL)	–	–	620 (≈ 253 µg/mL)	–	310 (≈ 127 µg/mL)	310 (≈ 127 µg/mL)	–	–	–
O=c1nc(N(Cc2ccc(Cl)cc2Cl)CC(O)(Cn2cncn2)c2ccc(F)cc2F)c(F)c[nH]1 (stereo not drawn)	–	120 (≈ 63 µg/mL)	–	240 (≈ 126 µg/mL)	–	–	480 (≈ 252 µg/mL)	–	240 (≈ 126 µg/mL)	120 (≈ 63 µg/mL)	–	–	–
O=c1nc(N(Cc2ccccc2Cl)CC(O)(Cn2cncn2)c2ccc(F)cc2F)c(F)c[nH]1 (stereo not drawn)	–	260 (≈ 128 µg/mL)	–	260 (≈ 128 µg/mL)	–	–	520 (≈ 255 µg/mL)	–	130 (≈ 63.8 µg/mL)	260 (≈ 128 µg/mL)	–	–	–
O=c1nc(N(Cc2ccccc2)CC(O)(Cn2cncn2)c2ccc(F)cc2F)c(F)c[nH]1 (stereo not drawn)	–	280 (≈ 128 µg/mL)	–	140 (≈ 63.9 µg/mL)	–	–	280 (≈ 128 µg/mL)	–	280 (≈ 128 µg/mL)	280 (≈ 128 µg/mL)	–	–	–
C#CCN(CC(O)(Cn1cncn1)c1ccc(F)cc1F)c1nc(=O)[nH]cc1F (stereo not drawn)	–	630 (≈ 255 µg/mL)	–	630 (≈ 255 µg/mL)	–	–	1260 (≈ 509 µg/mL)	–	310 (≈ 125 µg/mL)	1260 (≈ 509 µg/mL)	–	–	–
Nc1nc(=O)[nH]cc1F [FLUCYTOSINE]	–	1980 (≈ 256 µg/mL)	–	1980 (≈ 256 µg/mL)	–	–	990 (≈ 128 µg/mL)	–	490 (≈ 63.3 µg/mL)	30 (≈ 3.87 µg/mL)	–	–	–
O=c1nc(N(Cc2ccccc2F)CC(O)(Cn2cncn2)c2ccc(F)cc2F)c(F)c[nH]1 (stereo not drawn)	–	530 (≈ 251 µg/mL)	–	530 (≈ 251 µg/mL)	–	–	530 (≈ 251 µg/mL)	–	260 (≈ 123 µg/mL)	530 (≈ 251 µg/mL)	–	–	–
CCCCCCCCCCCCN(CC(O)(Cn1cncn1)c1ccc(F)cc1F)c1nc(=O)[nH]cc1F (stereo not drawn)	–	950 (≈ 508 µg/mL)	–	1910 (≈ 1020 µg/mL)	–	–	950 (≈ 508 µg/mL)	–	950 (≈ 508 µg/mL)	1910 (≈ 1020 µg/mL)	–	–	–
CCCCN(CC(O)(Cn1cncn1)c1ccc(F)cc1F)c1nc(=O)[nH]cc1F (stereo not drawn)	–	600 (≈ 253 µg/mL)	–	600 (≈ 253 µg/mL)	–	–	300 (≈ 127 µg/mL)	–	300 (≈ 127 µg/mL)	300 (≈ 127 µg/mL)	–	–	–
O=c1nc(N(Cc2ccc(Cl)cc2)CC(O)(Cn2cncn2)c2ccc(F)cc2F)c(F)c[nH]1 (stereo not drawn)	–	130 (≈ 63.8 µg/mL)	–	130 (≈ 63.8 µg/mL)	–	–	130 (≈ 63.8 µg/mL)	–	130 (≈ 63.8 µg/mL)	130 (≈ 63.8 µg/mL)	–	–	–
CCCCCCCCCCCCCCCCN(CC(O)(Cn1cncn1)c1ccc(F)cc1F)c1nc(=O)[nH]cc1F (stereo not drawn)	–	860 (≈ 508 µg/mL)	–	1770 (≈ 1050 µg/mL)	–	–	860 (≈ 508 µg/mL)	–	860 (≈ 508 µg/mL)	1730 (≈ 1020 µg/mL)	–	–	–
OC(Cn1cncn1)(Cn1cncn1)c1ccc(F)cc1F [FLUCONAZOLE]	–	830 (≈ 254 µg/mL)	–	1650 (≈ 505 µg/mL)	–	–	6 (≈ 1.84 µg/mL)	–	200 (≈ 61.3 µg/mL)	3 (≈ 0.919 µg/mL)	–	–	–
CCCCCCN(CC(O)(Cn1cncn1)c1ccc(F)cc1F)c1nc(=O)[nH]cc1F (stereo not drawn)	–	1130 (≈ 509 µg/mL)	–	560 (≈ 252 µg/mL)	–	–	280 (≈ 126 µg/mL)	–	560 (≈ 252 µg/mL)	560 (≈ 252 µg/mL)	–	–	–
O=c1nc(N(Cc2ccc(F)cc2)CC(O)(Cn2cncn2)c2ccc(F)cc2F)c(F)c[nH]1 (stereo not drawn)	–	530 (≈ 251 µg/mL)	–	260 (≈ 123 µg/mL)	–	–	530 (≈ 251 µg/mL)	–	260 (≈ 123 µg/mL)	530 (≈ 251 µg/mL)	–	–	–
CCCCCCCCN(CC(O)(Cn1cncn1)c1ccc(F)cc1F)c1nc(=O)[nH]cc1F (stereo not drawn)	–	1060 (≈ 507 µg/mL)	–	2130 (≈ 1020 µg/mL)	–	–	530 (≈ 254 µg/mL)	–	1060 (≈ 507 µg/mL)	530 (≈ 254 µg/mL)	–	–	–
CCN(CC(O)(Cn1cncn1)c1ccc(F)cc1F)c1nc(=O)[nH]cc1F (stereo not drawn)	–	640 (≈ 252 µg/mL)	–	640 (≈ 252 µg/mL)	–	–	320 (≈ 126 µg/mL)	–	160 (≈ 63.1 µg/mL)	320 (≈ 126 µg/mL)	–	–	–
CCCCCN(CC(O)(Cn1cncn1)c1ccc(F)cc1F)c1nc(=O)[nH]cc1F (stereo not drawn)	–	290 (≈ 127 µg/mL)	–	580 (≈ 253 µg/mL)	–	–	1170 (≈ 511 µg/mL)	–	580 (≈ 253 µg/mL)	580 (≈ 253 µg/mL)	–	–	–
O=c1nc(NCC(O)(Cn2cncn2)c2ccc(F)cc2F)c(F)c[nH]1 (stereo not drawn)	–	40 (≈ 14.7 µg/mL)	–	80 (≈ 29.3 µg/mL)	–	–	170 (≈ 62.3 µg/mL)	–	170 (≈ 62.3 µg/mL)	170 (≈ 62.3 µg/mL)	–	–	–
C=CCN(CC(O)(Cn1cncn1)c1ccc(F)cc1F)c1nc(=O)[nH]cc1F (stereo not drawn)	–	620 (≈ 252 µg/mL)	–	620 (≈ 252 µg/mL)	–	–	1250 (≈ 508 µg/mL)	–	310 (≈ 126 µg/mL)	620 (≈ 252 µg/mL)	–	–	–
O=c1nc(N(Cc2cccc(Cl)c2)CC(O)(Cn2cncn2)c2ccc(F)cc2F)c(F)c[nH]1 (stereo not drawn)	–	520 (≈ 255 µg/mL)	–	130 (≈ 63.8 µg/mL)	–	–	260 (≈ 128 µg/mL)	–	130 (≈ 63.8 µg/mL)	130 (≈ 63.8 µg/mL)	–	–	–
